{"source": "patent US10507212B2", "about": "“Method for use of homopiperazinium compounds in the treatment of cancer” (UNIVERSITÉ LAVAL, priority 2014, dated 2019)", "type_in_all_cases": "cell-based", "details_in_all_cases": "Homo sapiens", "key": {"MDA-MB-231": {"test_system": "MDA-MB-231", "assay": "Anti-proliferative MTT assay, MDA-MB-231", "description": "(§1) The effect of ASM-024 on the growth of MCF7, SK-BR-3, MDA-MB-231, BT-474 (mammary adenocarcinomas), SK-OV/3 (ovary adenocarcinoma), PC3 (prostate adenocarcinoma) SK-MEL-28(skin melanoma) and C6 (tumor cell glioma) was evaluated. Cells were cultured in RPMI medium and incubated with different concentrations of ASM-024. Cell proliferation was measured on days 3 and 6 by the MTT colorimetric assay. Absorbance at 576-690 nm was analyzed with a microplate reader and expressed as optical density (OD) and as a percentage of the value of corresponding untreated cells. The IC50 was determined as the drug concentration required to inhibit cell growth by 50% from a plot of percent cell viability from control untreated cells versus treated cells.\nFIGS. 5A and 5B illustrate the observed results for the MDA-MB-231 mammary/breast gland adenocarcinoma assay. Cells were incubated with the dose drug shown and growth measured at the days indicated. In FIG. 5A the data is expressed as optical density (OD) and in FIG. 5B as a percentage of the value of corresponding untreated cells. P<0.05 compared to control at same day by Student t-test"}, "BT-474": {"test_system": "BT-474", "assay": "Anti-proliferative MTT assay, BT-474", "description": "as §1"}, "SK-OV/3": {"test_system": "SK-OV/3", "assay": "Anti-proliferative MTT assay, SK-OV/3", "description": "as §1"}}, "note": "Read-outs that look alike come from different tables or passages of the source."}
{"smiles": "CC[N+]1(CC)CCCN(c2ccccc2)CC1.Cc1ccc(S(=O)(=O)[O-])cc1", "note": "[ASM-024, 1,1-Diethyl-4-phenyl-homopiperazinium Tosylate]", "values": [{"measurement": "IC50", "setting": "MDA-MB-231; 72 h, MDA-MB-231, day 3, read-out: IC50 Day 3", "result": "> 1000", "unit": "µM"}, {"measurement": "IC50", "setting": "MDA-MB-231; 144 h, MDA-MB-231, day 6, read-out: IC50 Day 6", "result": "661 ± 115", "unit": "µM"}, {"measurement": "IC50", "setting": "BT-474; 72 h, BT-474, day 3, read-out: IC50 Day 3", "result": "> 1000", "unit": "µM"}, {"measurement": "IC50", "setting": "BT-474; 144 h, BT-474, day 6, read-out: IC50 Day 6", "result": "644 ± 230", "unit": "µM"}, {"measurement": "IC50", "setting": "SK-OV/3; 72 h, SK-OV/3, day 3, read-out: IC50 Day 3", "result": "> 600", "unit": "µM"}, {"measurement": "IC50", "setting": "SK-OV/3; 144 h, SK-OV/3, day 6, read-out: IC50 Day 6", "result": "618 ± 125", "unit": "µM"}]}
